The source made the active and inactive calls. No cut-off for these calls is given here.

One assay has as its system LAPC4. Briefly: Cytotoxicity against human LAPC4 cells assessed as cell viability at 20 uM incubated for 72 hrs by resazurin dye based microplate reader assay. The format is functional. The note with it: read-out: Activity. Background: Alamar Blue is a resazurin reagent that responds to reducing activity.
On to `C[C@]12Cc3c(nn(-c4ccccc4)c3-c3ccc(Cl)cc3)C[C@@H]1CC[C@@H]1[C@@H]2CC[C@]2(C)C(=O)CC[C@@H]12`, for which the viability at 20 µM amounted to 83%.
Consider `Cn1nc2c(c1-c1ccc(Cl)cc1)C[C@@]1(C)[C@@H](CC[C@@H]3[C@@H]1CC[C@]1(C)C(=O)CC[C@@H]31)C2`, for which the viability at 20 µM was 21%.
As for `C[C@]12Cc3cn(-c4ccc(F)cc4)nc3C[C@@H]1CC[C@@H]1[C@@H]2CC[C@]2(C)[C@@H](O)CC[C@@H]12`, the viability at 20 µM turned out to be 95%.
Take `Cc1ccc(-n2ncc3c2C[C@@H]2CC[C@@H]4[C@H](CC[C@]5(C)[C@@H](O)CC[C@@H]45)[C@@]2(C)C3)cc1`: the viability at 20 µM amounted to 70%.
Same read-out and setting: the value for `Cn1nc2c(c1-c1ccc(Br)cc1)C[C@@]1(C)[C@@H](CC[C@@H]3[C@@H]1CC[C@]1(C)[C@@H](O)CC[C@@H]31)C2` was 42%.
Consider `C[C@]12Cc3c(nn(-c4ccccc4)c3-c3ccc(O)cc3)C[C@@H]1CC[C@@H]1[C@@H]2CC[C@]2(C)C(=O)CC[C@@H]12`, for which the viability at 20 µM was determined as 67%.

For another assay, the system named is LAPC4. Briefly: Downregulation of PSA protein expression in human LAPC4 cells at 10 uM incubated for 24 hrs by immunoblotting analysis. The format is functional, cell-based.
Conditions: not given
A general note: Immunoblotting shows a protein as a band on a membrane.
As for `C[C@]12Cc3c(nn(-c4ccccc4)c3-c3ccc(Cl)cc3)C[C@@H]1CC[C@@H]1[C@@H]2CC[C@]2(C)C(=O)CC[C@@H]12`, the result was inactive.
Consider `C[C@]12Cc3cn(-c4ccc(F)cc4)nc3C[C@@H]1CC[C@@H]1[C@@H]2CC[C@]2(C)[C@@H](O)CC[C@@H]12`, for which the outcome was inactive.
The same measure, in the same setting: the result for `Cc1ccc(-n2ncc3c2C[C@@H]2CC[C@@H]4[C@H](CC[C@]5(C)[C@@H](O)CC[C@@H]45)[C@@]2(C)C3)cc1` reads “Active”; that for `C[C@]12Cc3c(nn(-c4ccccc4)c3-c3ccc(O)cc3)C[C@@H]1CC[C@@H]1[C@@H]2CC[C@]2(C)C(=O)CC[C@@H]12`, “inactive”.

The subject of another assay is CWR22R. Briefly: Cytotoxicity against human 22Rv1 cells assessed as cell viability at 20 uM incubated for 72 hrs by resazurin dye based microplate reader assay. The settings on record: read-out: Activity. The format is functional.
As to `C[C@]12Cc3c(nn(-c4ccccc4)c3-c3ccc(Cl)cc3)C[C@@H]1CC[C@@H]1[C@@H]2CC[C@]2(C)C(=O)CC[C@@H]12`, the viability at 20 µM was 93%.
For `Cn1nc2c(c1-c1ccc(Cl)cc1)C[C@@]1(C)[C@@H](CC[C@@H]3[C@@H]1CC[C@]1(C)C(=O)CC[C@@H]31)C2`, the viability at 20 µM was 61%.
As to `C[C@]12Cc3cn(-c4ccc(F)cc4)nc3C[C@@H]1CC[C@@H]1[C@@H]2CC[C@]2(C)[C@@H](O)CC[C@@H]12`, the viability at 20 µM was at least 100%.
Consider `Cc1ccc(-n2ncc3c2C[C@@H]2CC[C@@H]4[C@H](CC[C@]5(C)[C@@H](O)CC[C@@H]45)[C@@]2(C)C3)cc1`, for which the viability at 20 µM was 97%.
For `Cn1nc2c(c1-c1ccc(Br)cc1)C[C@@]1(C)[C@@H](CC[C@@H]3[C@@H]1CC[C@]1(C)[C@@H](O)CC[C@@H]31)C2`, the viability at 20 µM was 21%.
Regarding `C[C@]12Cc3c(nn(-c4ccccc4)c3-c3ccc(O)cc3)C[C@@H]1CC[C@@H]1[C@@H]2CC[C@]2(C)C(=O)CC[C@@H]12`, the viability at 20 µM is 57%.

For the next assay, the system named is LAPC4. Briefly: Downregulation of Nkx3.1 protein expression in human LAPC4 cells at 10 uM incubated for 24 hrs by immunoblotting analysis. The format is functional, cell-based.
Conditions: not given
On to `C[C@]12Cc3c(nn(-c4ccccc4)c3-c3ccc(Cl)cc3)C[C@@H]1CC[C@@H]1[C@@H]2CC[C@]2(C)C(=O)CC[C@@H]12`, for which the outcome was inactive.
Turning to `C[C@]12Cc3cn(-c4ccc(F)cc4)nc3C[C@@H]1CC[C@@H]1[C@@H]2CC[C@]2(C)[C@@H](O)CC[C@@H]12`, the result was inactive.
As for `Cc1ccc(-n2ncc3c2C[C@@H]2CC[C@@H]4[C@H](CC[C@]5(C)[C@@H](O)CC[C@@H]45)[C@@]2(C)C3)cc1`, the outcome was Active.
Turning to `C[C@]12Cc3c(nn(-c4ccccc4)c3-c3ccc(O)cc3)C[C@@H]1CC[C@@H]1[C@@H]2CC[C@]2(C)C(=O)CC[C@@H]12`, the outcome was inactive.

Another assay relates to LAPC4. Briefly: Inhibition of colony formation in human LAPC4 cells at 5 uM incubated for 10 days by crystal violet staining based assay. The class given is functional, cell-based. The note with it: time 10.0 day.
In the case of `Cn1nc2c(c1-c1ccc(Cl)cc1)C[C@@]1(C)[C@@H](CC[C@@H]3[C@@H]1CC[C@]1(C)C(=O)CC[C@@H]31)C2`, the inhibition (commonly the percentage by which the read-out fell short of the control) is “Active”.
With `Cn1nc2c(c1-c1ccc(Br)cc1)C[C@@]1(C)[C@@H](CC[C@@H]3[C@@H]1CC[C@]1(C)[C@@H](O)CC[C@@H]31)C2`, the inhibition result was “Active”.

Test system in another assay: not listed separately
Put plainly: Downregulation of AR protein expression in human LAPC4 cells assessed as AR levels at 10 uM incubated for 24 hrs by immunoblotting analysis. The class given is functional.
Conditions: not given
Consider `C[C@]12Cc3c(nn(-c4ccccc4)c3-c3ccc(Cl)cc3)C[C@@H]1CC[C@@H]1[C@@H]2CC[C@]2(C)C(=O)CC[C@@H]12`, for which the Activity entry is listed as “>=100%”.
As to `Cn1nc2c(c1-c1ccc(Cl)cc1)C[C@@]1(C)[C@@H](CC[C@@H]3[C@@H]1CC[C@]1(C)C(=O)CC[C@@H]31)C2`, the Activity was 67%.
On to `C[C@]12Cc3cn(-c4ccc(F)cc4)nc3C[C@@H]1CC[C@@H]1[C@@H]2CC[C@]2(C)[C@@H](O)CC[C@@H]12`, for which the Activity entry is “>=100%”.
Still for that read-out and setting: the result for `Cc1ccc(-n2ncc3c2C[C@@H]2CC[C@@H]4[C@H](CC[C@]5(C)[C@@H](O)CC[C@@H]45)[C@@]2(C)C3)cc1` reads “>=100%”; that for `Cn1nc2c(c1-c1ccc(Br)cc1)C[C@@]1(C)[C@@H](CC[C@@H]3[C@@H]1CC[C@]1(C)[C@@H](O)CC[C@@H]31)C2`, 79%.
As to `C[C@]12Cc3c(nn(-c4ccccc4)c3-c3ccc(O)cc3)C[C@@H]1CC[C@@H]1[C@@H]2CC[C@]2(C)C(=O)CC[C@@H]12`, the Activity result is “>=100%”.

The next assay deals with DU-145. Briefly: Cytotoxicity against human DU-145 cells assessed as cell viability at 20 uM incubated for 72 hrs by resazurin dye based microplate reader assay. The class given is functional. The settings on record: read-out: Activity.
In the case of `C[C@]12Cc3c(nn(-c4ccccc4)c3-c3ccc(Cl)cc3)C[C@@H]1CC[C@@H]1[C@@H]2CC[C@]2(C)C(=O)CC[C@@H]12`, the viability at 20 µM is 98%.
On to `Cn1nc2c(c1-c1ccc(Cl)cc1)C[C@@]1(C)[C@@H](CC[C@@H]3[C@@H]1CC[C@]1(C)C(=O)CC[C@@H]31)C2`, for which the viability at 20 µM was determined as 98%.
As for `C[C@]12Cc3cn(-c4ccc(F)cc4)nc3C[C@@H]1CC[C@@H]1[C@@H]2CC[C@]2(C)[C@@H](O)CC[C@@H]12`, the viability at 20 µM was at least 100%.
Turning to `Cc1ccc(-n2ncc3c2C[C@@H]2CC[C@@H]4[C@H](CC[C@]5(C)[C@@H](O)CC[C@@H]45)[C@@]2(C)C3)cc1`, the viability at 20 µM stood at 96%.
On to `Cn1nc2c(c1-c1ccc(Br)cc1)C[C@@]1(C)[C@@H](CC[C@@H]3[C@@H]1CC[C@]1(C)[C@@H](O)CC[C@@H]31)C2`, for which the viability at 20 µM was 94%.
Turning to `C[C@]12Cc3c(nn(-c4ccccc4)c3-c3ccc(O)cc3)C[C@@H]1CC[C@@H]1[C@@H]2CC[C@]2(C)C(=O)CC[C@@H]12`, the viability at 20 µM came out at 94%.

In another assay the test system is LAPC4. Put plainly: Inhibition of colony formation in human LAPC4 cells at 10 uM incubated for 10 days by crystal violet staining based assay. The class given is functional. The note with it: LAPC4, 240 h, time 10 day.
Turning to `C[C@]12Cc3c(nn(-c4ccccc4)c3-c3ccc(Cl)cc3)C[C@@H]1CC[C@@H]1[C@@H]2CC[C@]2(C)C(=O)CC[C@@H]12`, 10 µM produced 91% inhibition.
In turn, `Cn1nc2c(c1-c1ccc(Cl)cc1)C[C@@]1(C)[C@@H](CC[C@@H]3[C@@H]1CC[C@]1(C)C(=O)CC[C@@H]31)C2` had an inhibition at 10 µM of 11%.
`C[C@]12Cc3cn(-c4ccc(F)cc4)nc3C[C@@H]1CC[C@@H]1[C@@H]2CC[C@]2(C)[C@@H](O)CC[C@@H]12` showed an inhibition at 10 µM of 66%.
Same read-out and setting: the value for `Cc1ccc(-n2ncc3c2C[C@@H]2CC[C@@H]4[C@H](CC[C@]5(C)[C@@H](O)CC[C@@H]45)[C@@]2(C)C3)cc1` was 0%; that for `Cn1nc2c(c1-c1ccc(Br)cc1)C[C@@]1(C)[C@@H](CC[C@@H]3[C@@H]1CC[C@]1(C)[C@@H](O)CC[C@@H]31)C2` was 16%; that for `C[C@]12Cc3c(nn(-c4ccccc4)c3-c3ccc(O)cc3)C[C@@H]1CC[C@@H]1[C@@H]2CC[C@]2(C)C(=O)CC[C@@H]12` was 39%.
